The record followed here is patent publication US10759783B2, “Biaryl inhibitors of Bruton'S tyrosine kinase” (BIOGEN MA INC., priority 2013, dated 2020).

The term IC50 denotes the concentration at which inhibition is half-maximal.

One assay has as its target T1, BTK enzyme (Homo sapiens, UniProt Q06187).
T1 construct: purchased Upstate 14-552
Description: In vitro BTK kinase assay: BTK-POLYGAT-LS assay. It is filed as biochemical. As to conditions: ATP 10 μM, read-out: IC50 (10uMATP). Put shortly: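 Human BTK activity was measured with final 10 μM ATP and 100 nM polyGAT substrate in pH 7.5 Tris buffer with 10 mM MgCl2, DTT, Triton X-100 and casein.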

Assay [1] addresses BTK (phospho-BTK) in human whole blood (Homo sapiens, UniProt Q06187). Description: In vitro PD assay in human whole blood (pBTK assay).

T1 sequence (Q06187 whole entry): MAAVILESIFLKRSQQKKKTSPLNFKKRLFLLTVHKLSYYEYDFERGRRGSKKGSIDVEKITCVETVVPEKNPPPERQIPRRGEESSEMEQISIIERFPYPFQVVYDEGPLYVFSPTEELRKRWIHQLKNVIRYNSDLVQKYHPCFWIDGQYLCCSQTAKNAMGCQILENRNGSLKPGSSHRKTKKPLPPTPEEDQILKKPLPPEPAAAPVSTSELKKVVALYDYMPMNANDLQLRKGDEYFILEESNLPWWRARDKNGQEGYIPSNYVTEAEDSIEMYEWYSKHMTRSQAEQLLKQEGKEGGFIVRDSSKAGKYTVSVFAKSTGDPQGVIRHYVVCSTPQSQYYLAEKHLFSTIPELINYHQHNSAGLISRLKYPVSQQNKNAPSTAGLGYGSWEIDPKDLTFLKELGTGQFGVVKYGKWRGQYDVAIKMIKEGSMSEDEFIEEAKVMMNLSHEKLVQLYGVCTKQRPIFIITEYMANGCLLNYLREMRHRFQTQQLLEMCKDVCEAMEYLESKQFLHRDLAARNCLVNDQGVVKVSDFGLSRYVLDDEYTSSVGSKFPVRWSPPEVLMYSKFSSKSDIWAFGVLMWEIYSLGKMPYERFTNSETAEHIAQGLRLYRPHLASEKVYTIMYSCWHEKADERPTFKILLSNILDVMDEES
Chain of BTK (phospho-BTK) in human whole blood (Q06187 whole entry): as above

As for `Cc1cc(-c2ccnc(Nc3cnn(C4CCOCC4)c3)n2)ccc1CNC(=O)N1CC(OC(C)C)C1` [Example I-221, 3-isopropoxy-N-(2-methyl-4-(2-((1-(tetrahydro-2H-pyran-4-yl)-1H-pyrazol-4-yl)amino)pyrimidin-4-yl)benzyl)azetidine-1-carboxamide], the 50% inhibitory concentration (IC50) was below 10 nM at BTK enzyme and below 500 nM in assay [1].
As to `CN1CCC(n2cc(Nc3nccc(-c4ccc(CNC(=O)N5CCC(C(C)(C)C)C5)c(C(F)(F)F)c4)n3)cn2)CC1` (centres unmarked) [Example I-298, 3-tert-butyl-N-[[4-[2-[[1-(1-methyl-4-piperidyl)pyrazol-4-yl]amino]pyrimidin-4-yl]-2-(trifluoromethyl)phenyl]methyl]pyrrolidine-1-carboxamide], the IC50 on BTK enzyme is below 10 nM; in assay [1] it was below 500 nM.
Taken in the same sequence, the figures for `CC(C)OC1CN(C(=O)NC2CCCOc3cc(-c4ccnc(Nc5cnn(C)c5)n4)ccc32)C1` (centres unmarked) [Example I-335, 3-isopropoxy-N-[8-[2-[(1-methylpyrazol-4-yl)amino]pyrimidin-4-yl]-2,3,4,5-tetrahydro-1-benzoxepin-5-yl]azetidine-1-carboxamide] were below 10 nM and below 500 nM.
Taken in the same sequence, the figures for `Cc1cc(-c2ccnc(Nc3cnn(C)c3)n2)ccc1CNC(=O)c1cnc(C(C)(C)C)s1` [Example I-1, 2-(tert-butyl)-N-(2-methyl-4-(2-((1-methyl-1H-pyrazol-4-yl)amino)pyrimidin-4-yl)benzyl)thiazole-5-carboxamide] were below 10 nM and below 500 nM.
Taken in the same sequence, the figures for `COCCn1cc(Nc2nccc(-c3ccc(CNC(=O)N4CC(OC(C)(C)C)C4)c(C)c3)n2)cn1` [Example I-304, 3-tert-butoxy-N-[[4-[2-[[1-(2-methoxyethyl)pyrazol-4-yl)amino]pyrimidin-4-yl]-2-methyl-phenyl]methyl]azetidine-1-carboxamide] were below 10 nM and below 500 nM.
For the compound `Cc1cc(-c2cc(Nc3cc4n(n3)CCN(C)C4)ncn2)ccc1CN1CCc2c(cnn2C(C)(C)C)C1=O` [Example I-309, 1-tert-butyl-5-[[2-methyl-4-[6-[(5-methyl-6,7-dihydro-4H-pyrazolo[1,5-a]pyrazin-2-yl)amino]pyrimidin-4-yl]phenyl]methyl]-6,7-dihydropyrazolo[4,3-c]pyridin-4-one], the 50% inhibitory concentration (IC50) at BTK enzyme was below 10 nM; in assay [1], below 500 nM.
Taken in the same sequence, the figures for `CCN1CCn2nc(Nc3cc(-c4ccc(CNC(=O)c5cnn(C(C)(C)C)c5)c(C)c4)ncn3)cc2C1` [Example I-232, 1-(tert-butyl)-N-(4-(6-((5-ethyl-4,5,6,7-tetrahydropyrazolo[1,5-a]pyrazin-2-yl)amino)pyrimidin-4-yl)-2-methylbenzyl)-1H-pyrazole-4-carboxamide] were below 10 nM and below 500 nM.
Taken in the same sequence, the figures for `Cc1cc(-c2cc(Nc3cc4n(n3)CCOC4)ncn2)ccc1CNC(=O)c1cnn(C(C)(C)C)c1` [Example I-237, 1-(tert-butyl)-N-(4-(6-((6,7-dihydro-4H-pyrazolo[5,1-c][1,4]oxazin-2-yl)amino)pyrimidin-4-yl)-2-methylbenzyl)-1H-pyrazole-4-carboxamide] were below 10 nM and below 500 nM.
Taken in the same sequence, the figures for `CCn1cc(Nc2nccc(-c3ccc(CNC(=O)c4cnn(C(C)(C)C)c4)c(C)c3)n2)cn1` [Example I-247, 1-(tert-butyl)-N-(4-(2-((1-ethyl-1H-pyrazol-4-yl)amino)pyrimidin-4-yl)-2-methylbenzyl)-1H-pyrazole-4-carboxamide] were below 10 nM and below 500 nM.
Take `Cc1cc(-c2cc(Nc3cc4n(n3)CCCN(CCO)C4)ncn2)ccc1CNC(=O)c1cnc(C(C)(C)C)s1` [Example I-285, 2-tert-butyl-N-[[4-[6-[[5-(2-hydroxyethyl)-4,6,7,8-tetrahydropyrazolo[1,5-a][1,4]diazepin-2-yl]amino]pyrimidin-4-yl]-2-methyl-phenyl]methyl]thiazole-5-carboxamide]: the results for the IC50 (on BTK enzyme; in assay [1]) were below 10 nM and below 500 nM, respectively.
Taken in the same sequence, the figures for `Cc1cc(-c2cc(Nc3cc4n(n3)CCN(C)C4)ncn2)ccc1CNC(=O)N1CC(OC(C)C)C1` [Example I-121, 3-isopropoxy-N-(2-methyl-4-(6-((5-methyl-4,5,6,7-tetrahydropyrazolo[1,5-a]pyrazin-2-yl)amino)pyrimidin-4-yl)benzyl)azetidine-1-carboxamide] were below 10 nM and below 500 nM.
Taken in the same sequence, the figures for `Cc1cc(-c2ccnc(Nc3cnn(C4CN(C)C4)c3)n2)ccc1CNC(=O)N1CC(OC(C)(C)C)C1` [Example I-215, 3-(tert-butoxy)-N-(2-methyl-4-(2-((1-(1-methylazetidin-3-yl)-1H-pyrazol-4-yl)amino)pyrimidin-4-yl)benzyl) azetidine-1-carboxamide] were below 10 nM and below 500 nM.
Consider `Cc1cc(-c2ccnc(Nc3cnn(CCO)c3)n2)ccc1CNC(=O)N1CC(OC(C)C)C1` [Example I-217, N-(4-(2-((1-(2-hydroxyethyl)-1H-pyrazol-4-yl)amino)pyrimidin-4-yl)-2-methylbenzyl)-3-isopropoxyazetidine-1-carboxamide], for which the half-maximal inhibitory concentration (IC50) was below 10 nM on BTK enzyme and below 500 nM in assay [1].
Taken in the same sequence, the figures for `Cc1cc(-c2ccnc(Nc3cnn(C[C@H]4CNCCO4)c3)n2)ccc1CNC(=O)c1cnc(C(C)(C)C)s1` [Example I-128, (R)-2-(tert-butyl)-N-(2-methyl-4-(2-((1-(morpholin-2-ylmethyl)-1H-pyrazol-4-yl)amino)pyrimidin-4-yl)benzyl)thiazole-5-carboxamide] were below 10 nM and below 500 nM.
Taken in the same sequence, the figures for `CC(C)(C)C1CCN(C(=O)NC2CCCc3cc(-c4ccnc(Nc5cnn(CCO)c5)n4)ccc32)C1` (centres unmarked) [Example I-327] were below 10 nM and below 500 nM.
For the compound `Cc1cc(-c2ccnc(Nc3cnn(CCO)c3)n2)ccc1CNC(=O)c1cc2c(s1)CCOC2` [Example I-120, N-(4-(2-((1-(2-hydroxyethyl)-1H-pyrazol-4-yl)amino)pyrimidin-4-yl)-2-methylbenzyl)-6,7-dihydro-4H-thieno[3,2-c]pyran-2-carboxamide], the IC50 at BTK enzyme was below 10 nM; in assay [1] it was 500 to 1500 nM.
Taken in the same sequence, the figures for `Cc1cc(-c2ccnc(Nc3cnn(C)c3)n2)ccc1CNC(=O)c1ccc(C(C)(C)C)cn1` [Example I-6, 5-(tert-butyl)-N-(2-methyl-4-(2-((1-methyl-1H-pyrazol-4-yl)amino)pyrimidin-4-yl)benzyl)picolinamide] were below 10 nM and 500 to 1500 nM.
On to `CC(C)(C)C1CCN(C(=O)NCc2ccc(-c3ccnc(Nc4cnn5c4CCC5)n3)cc2CCO)C1` (centres unmarked) [Example I-324, 3-tert-butyl-N-[[4-[2-(5,6-dihydro-4H-pyrrolo[1,2-b]pyrazol-3-ylamino)pyrimidin-4-yl]-2-(2-hydroxyethyl)phenyl]methyl]pyrrolidine-1-carboxamide], for which the IC50 is below 10 nM at BTK enzyme and below 500 nM in assay [1].
Taken in the same sequence, the figures for `Cc1cc(-c2ccnc(Nc3cnn(C(C)C)c3)n2)ccc1CNC(=O)c1cnn(C(C)(C)C)c1` [Example I-258, 1-tert-butyl-N-[[4-[2-[(1-isopropylpyrazol-4-yl)amino]pyrimidin-4-yl]-2-methyl-phenyl]methyl]pyrazole-4-carboxamide] were below 10 nM and below 500 nM.
Taken in the same sequence, the figures for `CC(C)(C)OC1CN(C(=O)NC2CCCCc3cc(-c4ccnc(Nc5cnn6c5CCC6)n4)ccc32)C1` (centres unmarked) [Example I-182, 3-(tert-butoxy)-N-(2-(2-((5,6-dihydro-4H-pyrrolo [1,2-b]pyrazol-3-yl)amino)pyrimidin-4-yl)-6,7,8,9-tetrahydro-5H-benzo[7]annulen-5-yl)azetidine-1-carboxamide] were below 10 nM and below 500 nM.
With `COCCn1cc(Nc2nccc(-c3ccc(CNC(=O)N4CCC(C(C)C)C4)c(C(F)(F)F)c3)n2)cn1` (centres unmarked) [Example I-317, 3-isopropyl-N-[[4-[2-[[1-(2-methoxyethyl)pyrazol-4-yl]amino]pyrimidin-4-yl]-2-(trifluoromethyl)phenyl]methyl]pyrrolidine-1-carboxamide], the IC50 was below 10 nM on BTK enzyme and below 500 nM in assay [1].
Taken in the same sequence, the figures for `Cc1cc(-c2cc(Nc3cnn(C)n3)ncn2)ccc1CNC(=O)c1cnc(C(C)(C)C)s1` [Example I-67, 2-(tert-butyl)-N-(2-methyl-4-(6-((2-methyl-2H-1,2,3-triazol-4-yl)amino)pyrimidin-4-yl)benzyl)thiazole-5-carboxamide] were below 10 nM and 500 to 1500 nM.
`Cc1cc(-c2ccnc(Nc3cnn(C4CC4)c3)n2)ccc1CNC(=O)N1CCC(C(C)(C)C)C1` (centres unmarked) [Example I-308, 3-tert-butyl-N-[[4-[2-[(1-cyclopropylpyrazol-4-yl)amino]pyrimidin-4-yl]-2-methyl-phenyl]methyl]pyrrolidine-1-carboxamide]: the IC50 at BTK enzyme is below 10 nM; in assay [1], below 500 nM.
As to `Cc1cc(-c2ccnc(Nc3cnn(C[C@H](O)CN)c3)n2)ccc1CNC(=O)c1cnc(C(C)(C)C)s1` [Example I-127, (R)—N-(4-(2-((1-(3-amino-2-hydroxypropyl)-1H-pyrazol-4-yl)amino)pyrimidin-4-yl)-2-methylbenzyl)-2-(tert-butyl)thiazole-5-carboxamide], the IC50 is below 10 nM at BTK enzyme and 500 to 1500 nM in assay [1].
For `COCCn1cc(Nc2nccc(-c3ccc(CNC(=O)N4CC(OC(C)C)C4)c(C(F)(F)F)c3)n2)cn1` [Example I-351, 3-isopropoxy-N-[[4-[2-[[1-(2-methoxyethyl)pyrazol-4-yl]amino]pyrimidin-4-yl]-2-(trifluoromethyl)phenyl]methyl]azetidine-1-carboxamide], the IC50 on BTK enzyme was below 10 nM; in assay [1], below 500 nM.
